Assay results as given in PubChem BioAssay (NCI).
Values joined by “and” are separate entries in the source; they are usually repeats but may differ in a detail not shown here. Identical values can stand only once.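 Where inhibition never reached the appropriate level, the endpoint shown equals the highest concentration tested. Otherwise, values were interpolated linearly from a five-concentration, 48-hour dose response in 96-well plates. GI50 is the concentration that inhibits growth by half. TGI denotes the concentration required for complete inhibition of growth.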

Columns and labels:
Experiment in all cases: inhibition of tumour cell growth, NCI panel, 48 h
[1] = system: DMS 114 small cell lung
[2] = system: HOP-18 NSCLC
[3] = system: DLD-1 colon
[4] = system: M19-MEL melanoma
[5] = system: PC-3 prostate
[6] = system: BT-549 breast
[7] = system: MCF7 breast
[8] = system: T-47D breast
[9] = system: MDA-MB-231 breast
[10] = system: HS 578T breast

CC1CC(=O)Nc2ccc(Cl)cc2N1C(=O)CN1CCC(CCCCN(C)C)CC1 (stereo not drawn)
TGI [1]: > 100 µM
TGI [2]: > 100 µM
TGI [3]: > 100 µM

O=C1OC(CC(=O)c2ccc(F)cc2)C(Cl)=C1Cl (stereo not drawn)
TGI [1]: > 100 µM
TGI [4]: > 100 µM
TGI [2]: 44.6 µM
TGI [3]: 47.4 µM

O=C(CCC(=O)Nc1ccccc1C(F)(F)F)N/N=C1\C(=N\NC(=O)CCC(=O)Nc2ccccc2C(F)(F)F)C(c2ccc3c(c2)OCO3)Oc2ccccc21 (stereo not drawn)
TGI [1]: > 22.3 µM
TGI [4]: > 100 µM
TGI [2]: > 100 µM
TGI [3]: > 100 µM

c1ccc2c(c1)[nH]c1cnc3c4ncccc4[nH]c3c12
TGI [1]: > 100 µM
TGI [4]: > 100 µM
TGI [3]: > 100 µM

O=C1c2c(O)cccc2C(C(=O)CCCCCC(=O)C2c3cccc(O)c3C(=O)c3c(O)cccc32)c2cccc(O)c21
GI50 [1]: 3.16 µM
TGI [1]: 1.29 µM and 9.22 µM
GI50 [4]: 2.4 µM
TGI [4]: 2.5 µM and 9.2 µM
GI50 [2]: 7.95 µM
TGI [2]: 4.28 µM and 14.9 µM
GI50 [3]: 7.67 µM
TGI [3]: 8.88 µM and 16.7 µM

O=C(Nc1ccccc1[N+](=O)[O-])/C(=N/Nc1cccc(Cl)c1)c1c(O)c2ccccc2oc1=O
TGI [1]: 53.8 µM
TGI [4]: > 100 µM
TGI [2]: > 100 µM
TGI [3]: > 100 µM

Nc1cn(C2OC(CC(c3ccccc3)(c3ccccc3)c3ccccc3)C(O)C2O)c(=O)[nH]c1=O (stereo not drawn)
TGI [1]: 35.4 µM
TGI [4]: 34.9 µM
TGI [2]: 67.7 µM
TGI [3]: 54.6 µM

CCOC(=O)c1oc2c(OC)ccc3c2c1CCC3
TGI [1]: > 100 µM
TGI [4]: > 100 µM
TGI [3]: > 100 µM

NCCOc1ccc(/C(=C(/Cl)c2ccccc2)c2ccccc2)cc1
TGI [1]: 27.1 µM
TGI [4]: 23.8 µM
TGI [3]: 33.3 µM

NC1=NN(c2ccccc2)C(=O)C1C(=O)C(=O)Nc1ccc(Cl)cc1 (stereo not drawn)
TGI [1]: > 100 µM
TGI [4]: > 100 µM
TGI [2]: > 100 µM
TGI [3]: > 100 µM

N#CCCN(CCC#N)c1ccc(/C=C(/NC(=O)c2cc([N+](=O)[O-])ccc2Cl)C(=O)N=[N+]=[N-])cc1
TGI [1]: > 100 µM
TGI [4]: > 100 µM
TGI [2]: > 100 µM
TGI [3]: > 100 µM

O/N=C1/CCC/C1=C\c1ccccc1
TGI [2]: > 100 µM
TGI [3]: > 100 µM

CCCCCCCCCCC(=O)CCCCCCC(=O)O
TGI [1]: 50.3 µM
TGI [4]: 74.7 µM
TGI [2]: 39 µM
TGI [3]: 47.2 µM

O=S(=O)(C1=CC(S(=O)(=O)c2ccccc2)COC1)c1ccccc1 (stereo not drawn)
TGI [1]: > 100 µM
TGI [4]: > 100 µM
TGI [3]: > 100 µM

Cc1ccc2nc(NC(=O)C(=O)C(C(=O)c3ccc4ccccc4c3)C3OC(=O)c4ccccc43)sc2c1 (stereo not drawn)
TGI [1]: 29.3 µM
TGI [4]: 32.6 µM
TGI [3]: 32.7 µM

CC(=O)Nc1ccccc1-c1nc2ccccc2nc1-c1ccccc1
TGI [1]: > 100 µM
TGI [4]: > 100 µM
TGI [2]: > 100 µM
TGI [3]: > 100 µM

CC(C)N(C(=O)C12C3C4C1C1C2C3C41C(=O)C(C)(C)C)C(C)C (stereo not drawn)
TGI [1]: > 100 µM
TGI [4]: > 100 µM
TGI [3]: > 100 µM

C[N+]1=C(c2cccnc2/C=N/O)OCC1(C)C
TGI [1]: > 100 µM
TGI [4]: > 100 µM
TGI [2]: > 100 µM
TGI [3]: > 100 µM

C#CCN(N=O)C(=O)NC(CCCCNC(=O)OCc1ccccc1)C(=O)OCc1ccccc1 (stereo not drawn)
TGI [1]: 44 µM
TGI [4]: > 100 µM
TGI [2]: 44.9 µM
TGI [3]: 42.7 µM

CC(Oc1cc2oc(=O)cc(-c3ccccc3)c2cc1Cl)C(=O)O (stereo not drawn)
TGI [1]: > 100 µM
TGI [4]: > 100 µM
TGI [2]: > 100 µM
TGI [3]: > 100 µM

CC1CC(C[N+](=O)[O-])CC2(C1)OCCO2 (stereo not drawn)
TGI [1]: > 100 µM
TGI [4]: > 100 µM
TGI [2]: > 100 µM
TGI [3]: > 100 µM

CCCCC(C(=O)C(=O)Nc1ccc(C)cc1C)C(=O)C(C)C (stereo not drawn)
TGI [1]: > 100 µM
TGI [4]: > 100 µM
TGI [2]: > 100 µM
TGI [3]: > 100 µM

NC(CCSCC(F)(F)F)C(=O)O (stereo not drawn)
TGI [1]: > 100 µM
TGI [4]: > 100 µM
TGI [2]: > 100 µM
TGI [3]: > 100 µM

O=C(CCc1nc(=S)[nH][nH]1)Nc1cc(Cl)ccc1Cl
TGI [1]: > 100 µM
TGI [4]: > 100 µM
TGI [2]: > 100 µM
TGI [3]: > 100 µM

COC(=O)C(C(=O)C(=O)Nc1ccc(C)cc1)c1nc2ccc([N+](=O)[O-])cc2[nH]c1=O (stereo not drawn)
TGI [1]: > 100 µM
TGI [4]: > 100 µM
TGI [2]: > 100 µM
TGI [3]: > 100 µM

CC[C@@]1(O)C(=O)OCc2c1cc1n(c2=O)Cc2cc3cc(Cl)ccc3nc2-1
GI50 [1]: < 0.001 µM
GI50 [4]: 0.0167 µM and 0.0195 µM
TGI [4]: 0.224 µM and 0.19 µM
GI50 [5]: 0.0427 µM
GI50 [6]: 0.0562 µM
TGI [6]: 2.44 µM
GI50 [7]: 0.00364 µM
GI50 [8]: 0.00335 µM
TGI [8]: 0.167 µM
GI50 [9]: 0.094 µM
TGI [9]: 4.69 µM
GI50 [10]: 0.445 µM
GI50 [3]: 0.108 µM and 0.346 µM
TGI [3]: > 100 µM

COc1cc(/C=C/C(=O)c2cccc3ccccc23)cc(OC)c1OC
TGI [4]: 38.2 µM
TGI [2]: 24.8 µM

CNC(=O)c1cc(Oc2ccc3nc(NC(=O)Nc4ccc(CN5CCOCC5)c(C(F)(F)F)c4)sc3c2)ccn1
GI50 [5]: 2.04 µM
TGI [5]: 6.22 µM
GI50 [6]: 3.02 µM
TGI [6]: 9.18 µM
GI50 [7]: 1.75 µM
TGI [7]: 4.63 µM
GI50 [8]: 1.53 µM
TGI [8]: 6.82 µM
GI50 [9]: 2.14 µM
TGI [9]: 5.8 µM
GI50 [10]: 2.55 µM
TGI [10]: 9.6 µM

O=C(NCCCCCCCCCCCCNC(=O)c1cnc2ccccc2n1)c1cnc2ccccc2n1
TGI [1]: > 100 µM
TGI [4]: > 100 µM
TGI [2]: 79.4 µM
TGI [3]: > 100 µM

O/N=C1/CCCC/C1=C/C=C/c1ccccc1
TGI [4]: 43.8 µM
TGI [2]: 78.1 µM
TGI [3]: > 100 µM

CC(=O)NNc1nc(C)c(C(=O)NNC(=O)C(=O)Nc2ccc(Cl)c([N+](=O)[O-])c2)s1
TGI [1]: > 100 µM
TGI [4]: > 100 µM

C/C(=C1/N=C(c2cc([N+](=O)[O-])ccc2Cl)N(c2ccc(Br)cc2)C1=O)c1ccc(N(CCC#N)CCC#N)cc1C
TGI [1]: 27.2 µM
TGI [4]: 92.3 µM
TGI [2]: > 100 µM
TGI [3]: 32.2 µM

CC12Nc3ccccc3C1=C(c1ccccc1)CC1C(=O)OC(=O)C12 (stereo not drawn)
TGI [1]: > 100 µM
TGI [4]: > 100 µM
TGI [3]: > 100 µM

COc1ccc(C(c2ccccc2C(=O)O)c2ccc(OC)c3ccccc23)c2ccccc12
TGI [1]: 21.1 µM
TGI [4]: 27.6 µM
TGI [2]: 13.4 µM
TGI [3]: 22.2 µM

COc1ccc2[nH]c(Cl)c(/C=C3/C(=O)Nc4ccccc43)c2c1
GI50 [5]: 0.676 µM
TGI [5]: 6.84 µM
GI50 [6]: 0.185 µM
TGI [6]: 0.523 µM
GI50 [7]: 0.79 µM
TGI [7]: > 38.5 µM
GI50 [8]: 5.4 µM
TGI [8]: 84.5 µM
GI50 [9]: < 0.0477 µM
TGI [9]: 2.95 µM
GI50 [10]: 0.837 µM
TGI [10]: 4.31 µM

O=C1C=CC2(CCCCCCC2=O)CC1 (stereo not drawn)
TGI [4]: > 100 µM
TGI [2]: > 100 µM
TGI [3]: > 100 µM

C[C@@H](Nc1nc(N[C@H](C)C(F)(F)F)nc(-c2cccc(Cl)n2)n1)C(F)(F)F
GI50 [5]: 45.4 µM
TGI [5]: > 100 µM
GI50 [6]: 37.9 µM
TGI [6]: > 100 µM
GI50 [7]: 50.6 µM
TGI [7]: > 100 µM
GI50 [8]: 41.8 µM
TGI [8]: > 100 µM
GI50 [9]: 26.8 µM
TGI [9]: > 100 µM
GI50 [10]: 26 µM
TGI [10]: > 100 µM

C[C@@H](O)[C@@H](C)Oc1nc(Nc2ccc(S(=N)(=O)C3CC3)cc2)ncc1C(F)(F)F (stereo partly drawn)
GI50 [5]: 0.0401 µM
TGI [5]: 0.443 µM
GI50 [6]: 0.0274 µM
TGI [6]: 0.182 µM
GI50 [7]: 0.0169 µM
TGI [7]: 29.7 µM
GI50 [8]: 0.0386 µM
TGI [8]: 6.62 µM
GI50 [9]: 0.0336 µM
TGI [9]: > 100 µM
GI50 [10]: 0.0313 µM
TGI [10]: 7.96 µM

COc1ccc(-n2cc(-c3cc(OC)c(OC)c(OC)c3)nc2SCc2ccc(Cl)cc2)cc1OC
GI50 [5]: 35.3 µM
TGI [5]: > 100 µM
GI50 [6]: > 100 µM
TGI [6]: > 100 µM
GI50 [7]: 92.6 µM
TGI [7]: > 100 µM
GI50 [8]: 15.1 µM
TGI [8]: > 100 µM
GI50 [9]: > 100 µM
TGI [9]: > 100 µM
GI50 [10]: 66.5 µM
TGI [10]: > 100 µM

CC(=O)OCCOCn1c2ccccc2c2c3c(c4c5ccccc5n(COCCOC(C)=O)c4c21)C(=O)N(Cc1ccccc1)C3=O
TGI [4]: > 100 µM
TGI [3]: > 100 µM

C[C@H]1CCC/C=C/C2CC(OC(=O)CN(C)C)CC2C(OC(=O)CN(C)C)/C=C/C(=O)O1 (stereo partly drawn)
GI50 [1]: 0.479 µM
TGI [1]: > 30.2 µM
GI50 [4]: 0.0406 µM
TGI [4]: 0.211 µM
GI50 [5]: 0.261 µM
TGI [5]: > 100 µM
GI50 [6]: 0.459 µM
TGI [6]: 74.9 µM
GI50 [7]: 0.31 µM
TGI [7]: 1.53 µM
GI50 [9]: 0.148 µM
TGI [9]: 0.806 µM
GI50 [10]: 30.1 µM
TGI [10]: > 100 µM
GI50 [3]: 0.443 µM
TGI [3]: > 37.1 µM

Oc1ccc(NC(=S)Nc2ccccc2)cc1
GI50 [5]: > 100 µM
TGI [5]: > 100 µM
GI50 [6]: > 100 µM
TGI [6]: > 100 µM
GI50 [7]: > 100 µM
TGI [7]: > 100 µM
GI50 [8]: > 100 µM
TGI [8]: > 100 µM
GI50 [9]: > 100 µM
TGI [9]: > 100 µM
GI50 [10]: > 100 µM
TGI [10]: > 100 µM

N#C/C(=C\c1ccc(O)c(O)c1)C(=O)NCc1ccc(C(F)(F)F)cc1
GI50 [5]: 30.1 µM
TGI [5]: > 100 µM
GI50 [6]: 10.6 µM
TGI [6]: > 53.7 µM
GI50 [7]: 21.3 µM
TGI [7]: > 69 µM
GI50 [8]: 8.72 µM
TGI [8]: 59.8 µM
GI50 [9]: 2.08 µM
TGI [9]: 18.1 µM
GI50 [10]: 12.6 µM
TGI [10]: 46.9 µM

CC1(C)OB(c2ccc(N(CCOS(C)(=O)=O)CCOS(C)(=O)=O)cc2)OC1(C)C
GI50 [5]: 15.6 µM
TGI [5]: > 79.7 µM
GI50 [6]: 17.6 µM
TGI [6]: 41 µM
GI50 [7]: 17.8 µM
TGI [7]: > 83.8 µM
GI50 [8]: 18.1 µM
TGI [8]: > 100 µM
GI50 [9]: > 43.5 µM
TGI [9]: > 65.2 µM
GI50 [10]: 32.3 µM
TGI [10]: > 87 µM
